Measurements: patent US4508926A, “4-Hydroxy-benzhydrols, process for their preparation and pharmaceutical compositions containing them” (Richter Gedeon Vegyeszeti Gyar Rt., priority 1982, dated 1985)

Tests used:
[1] = system: alcoholic intoxication, narcosis; settings: in vivo; cited from earlier work
[2] = system: ethanolic narcosis; experiment: Ethanolic narcosis period in rats (righting reflex); assay type: in vivo, Hann.-Wistar rats; settings: 1 h before ethanol i.p., n=10, control 100 ± 5.2
Description: The animals were treated with various doses of the compounds of the formula (I) in groups of ten, orally, One hour after treatment the rats were treated with […]. of ethanol intraperitoneally (i.p.). The narcosis period of the animals was measured from the elapse of the righting reflex until a spontaneous correction of the body position. The average of the narcosis period and the percentage difference from the control were calculated. The control group was treated with placebo and […]. of ethanol.

[3] = Acute oral toxicity, 14 days observation; settings: rat, in vivo, 500 mg/kg
[4] = system: ethanolic locomotoric hyperactivity; settings: mice; in a dose range which decreases spontaneous locomotoric activity; cited from earlier work
[5] = system: spontaneous locomotoric activity; settings: in the dose range that normalizes ethanolic hyperactivity; cited from earlier work

## N[C@@H](CS)C(=O)O [L-cysteine, reference compound]
[1]
  Alcoholic intoxication, narcosis: shortened
[2]; 500.0 mg./kg.
  Ethanolic narcosis period, x ± S.E.: 63 ± 4.2
[2]; 1000.0 mg./kg.
  Ethanolic narcosis period, x ± S.E.: 66 ± 5.9

## CCC(O)(c1ccc(O)cc1)c1ccccc1C(F)(F)F (stereo not drawn) [A, 2-trifluoromethyl-4'-hydroxy-α-ethyl-benzhydrol]
[3]
  mortality at 336 h: 0%
[2]; 5.0 mg./kg. orally
  Ethanolic narcosis period, x ± S.E.: 69 ± 4.5
[2]; 20.0 mg./kg. orally
  Ethanolic narcosis period, x ± S.E.: 52 ± 6.0
[2]; 40.0 mg./kg. orally
  Ethanolic narcosis period, x ± S.E.: 39 ± 3.4

## CC(N)(Cc1ccc(O)cc1)C(=O)O (stereo not drawn) [α-Methyl-para-tyrosine]
[4]
  Ethanolic locomotoric hyperactivity: normalizes the ethanolic locomotoric hyperactivity
[5]
  Spontaneous locomotoric activity: decreases the spontaneous locomotoric activity

## CCC(O)(c1ccc(O)cc1)c1cccc(Cl)c1 (stereo not drawn) [B, 3-chloro-4'-hydroxy-α-ethyl-benzhydrol]
[3]
  mortality at 336 h: 0%
[2]; 40.0 mg./kg. orally
  Ethanolic narcosis period, x ± S.E.: 60 ± 7.5
